Legend:
aggrecanase-1 = molecular target: T1, aggrecanase-1 (Homo sapiens, UniProt O75173); assay: Aggrecanase-1 inhibitory action, Particle Assay (GAG release from aggrecan-containing polyacrylamide particles); assay type: biochemical; conditions: 37° C. for 15 hr, read-out: Experimental Example 1 IC50 AG1
T1 sequence (O75173 213-837): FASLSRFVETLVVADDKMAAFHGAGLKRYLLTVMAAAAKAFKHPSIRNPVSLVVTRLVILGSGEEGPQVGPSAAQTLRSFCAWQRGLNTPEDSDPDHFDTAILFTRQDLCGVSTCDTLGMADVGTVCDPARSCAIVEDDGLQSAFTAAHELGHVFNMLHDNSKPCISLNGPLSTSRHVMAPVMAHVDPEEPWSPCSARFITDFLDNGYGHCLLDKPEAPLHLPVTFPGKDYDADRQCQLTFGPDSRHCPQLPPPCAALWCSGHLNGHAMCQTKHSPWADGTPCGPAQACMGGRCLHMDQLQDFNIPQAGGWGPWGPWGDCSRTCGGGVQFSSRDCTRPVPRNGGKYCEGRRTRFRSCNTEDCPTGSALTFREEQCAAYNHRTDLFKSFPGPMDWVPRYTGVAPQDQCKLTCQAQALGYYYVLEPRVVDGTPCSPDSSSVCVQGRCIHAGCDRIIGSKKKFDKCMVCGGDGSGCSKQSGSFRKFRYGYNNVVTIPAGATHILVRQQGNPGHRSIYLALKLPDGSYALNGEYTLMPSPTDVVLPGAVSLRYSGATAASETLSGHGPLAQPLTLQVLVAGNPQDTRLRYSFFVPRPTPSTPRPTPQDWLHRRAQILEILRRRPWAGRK
Method: Aggrecanase-1 Inhibitory Action
Particle Assay was used for determination of aggrecanase activity.
(§1) The enzyme and substrate were diluted with Tris-HCl buffer, and test compounds were diluted with dimethyl sulfoxide (DMSO).
Test compounds and the enzyme were added into 96-well plate, and polyacrylamide particles containing aggrecan were added as a substrate and the mixture was incubated at 37° C. for 15 hr.
After incubation; the supernatant was transferred to another plate, and mixed with 1,9-dimethylmethylene blue. The absorbance at 595 nm was measured to quantify the amount of glycosaminoglycan (GAG) released in the reaction supernatant. Whale chondroitin sulfate was used as the standard of GAG. The inhibitory activity of the compound in each well (%) was calculated based on the values of enzyme-free well and inhibitor-free well. The inhibitory activity of the compound was represented as IC50 (μM).

MMP-1 = molecular target: T2, MMP-1 (Homo sapiens, UniProt P03956); assay: MMP-1 inhibitory action, Type I collagen Activity Measurement kit (FITC-labeled collagen type I); assay type: biochemical; conditions: 37° C. for 3 hr, read-out: Experimental Example 2 IC50 MMP1
T2 sequence (P03956 100-469): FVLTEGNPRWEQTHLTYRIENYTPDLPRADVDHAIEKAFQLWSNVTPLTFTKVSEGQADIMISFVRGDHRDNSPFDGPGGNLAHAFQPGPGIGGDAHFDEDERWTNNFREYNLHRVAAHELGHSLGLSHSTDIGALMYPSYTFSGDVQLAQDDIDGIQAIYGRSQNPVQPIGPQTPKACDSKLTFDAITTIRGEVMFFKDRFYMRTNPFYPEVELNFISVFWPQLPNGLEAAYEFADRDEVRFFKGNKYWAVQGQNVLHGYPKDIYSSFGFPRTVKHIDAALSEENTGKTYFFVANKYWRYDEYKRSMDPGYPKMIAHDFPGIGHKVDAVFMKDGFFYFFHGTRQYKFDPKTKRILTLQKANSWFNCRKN
Method: For MMP-1 Assay, Type I collagen Activity Measurement kit (YAGAI YU-72013) modified to a 96-well plate format was used.
The principle of the kit is based on the property of collagen that becomes soluble in ethanol after being cleaved by MMP-1.
as §1
The enzyme and test compounds were added into 96-well plate, and fluorescein isothiocianate (FITC)-labeled collagen type I was added as a substrate and the mixture was incubated at 37° C. for 3 hr.
The reaction was terminated by addition of Tris-HCl buffer containing ethanol. After centrifugation, the supernatant containing denatured substrate was transferred to another 96-well plate. The collagenase activity of MMP-1 was determined by measuring FITC fluorescence intensity (excitation wavelength 485 nm, emission wavelength 530 nm) of each well. The inhibitory activity of the compound in each well (%) was calculated based on the values of enzyme-free well and inhibitor-free well. The inhibitory activity of the compound was represented as IC50 (μM).

| IC50 (aggrecanase-1) | IC50 (MMP-1) | Compound |
| --- | --- | --- |
| < 1 µM | ≥ 10 µM | N#Cc1ccccc1[C@@H]1C[C@@]1(C(=O)O)N(CC(=O)O)S(=O)(=O)c1ccc(-c2ccc(Cl)cc2)cc1 (relative stereo) [Example 1-28, (1R*,2S*)-1-[carboxymethyl-(4′-chloro-biphenyl-4-sulfonyl)-amino]-2-(2-cyano-phenyl)-cyclopropanecarboxylic acid] |
| < 1 µM | ≥ 10 µM | O=C(O)CN([C@]1(C(=O)O)C[C@H]1c1c(Cl)cccc1Cl)S(=O)(=O)c1ccc(-c2ccc(Cl)cc2)cc1 (relative stereo) [Example 1-29, (1R*,2S*)-1-[carboxymethyl-(4′-chloro-biphenyl-4-sulfonyl)-amino]-2-(2,6-dichloro-phenyl)-cyclopropanecarboxylic acid] |
| < 1 µM | ≥ 10 µM | N#Cc1ccc([C@@H]2C[C@@]2(C(=O)O)N(CC(=O)O)S(=O)(=O)c2ccc(-c3ccc(Cl)cc3)cc2)cc1 (relative stereo) [Example 1-30, (1R*,2S*)-1-[carboxymethyl-(4′-chloro-biphenyl-4-sulfonyl)-amino]-2-(4-cyano-phenyl)-cyclopropanecarboxylic acid] |
| < 0.1 µM | ≥ 10 µM | O=C(O)CN([C@]1(C(=O)O)C[C@H]1c1ccccc1Cc1ccccc1)S(=O)(=O)c1ccc(-c2ccc(Cl)cc2)cc1 (relative stereo) [Example 1-31, (1R*,2S*)-2-(2-benzyl-phenyl)-1-[carboxymethyl-(4′-chloro-biphenyl-4-sulfonyl)-amino]-cyclopropanecarboxylic acid] |
| < 1 µM | ≥ 10 µM | O=C(O)CN([C@]1(C(=O)O)C[C@H]1c1ccc(-c2ccccc2)cc1)S(=O)(=O)c1ccc(-c2ccc(Cl)cc2)cc1 (relative stereo) [Example 1-32, (1R*,2S*)-2-biphenyl-4-yl-1-[carboxymethyl-(4′-chloro-biphenyl-4-sulfonyl)-amino]-cyclopropanecarboxylic acid] |
| < 1 µM | ≥ 10 µM | O=C(O)CN([C@]1(C(=O)O)C[C@H]1c1ccccc1C(F)(F)F)S(=O)(=O)c1ccc(-c2ccc(Cl)cc2)cc1 (relative stereo) [Example 1-33, (1R*,2S*)-1-[carboxymethyl-(4′-chloro-biphenyl-4-sulfonyl)-amino]-2-(2-trifluoromethyl-phenyl)-cyclopropanecarboxylic acid] |
| < 0.1 µM | ≥ 10 µM | O=C(O)CN([C@]1(C(=O)O)C[C@H]1c1cccc(C(F)(F)F)c1)S(=O)(=O)c1ccc(-c2ccc(Cl)cc2)cc1 (relative stereo) [Example 1-34, (1R*,2S*)-1-[carboxymethyl-(4′-chloro-biphenyl-4-sulfonyl)-amino]-2-(3-trifluoromethyl-phenyl)-cyclopropanecarboxylic acid] |
| < 1 µM | ≥ 10 µM | O=C(O)CN([C@]1(C(=O)O)C[C@H]1c1cc(Cl)ccc1C(F)(F)F)S(=O)(=O)c1ccc(-c2ccc(Cl)cc2)cc1 (relative stereo) [Example 1-35, (1R*,2S*)-1-[carboxymethyl-(4′-chloro-biphenyl-4-sulfonyl)-amino]-2-(5-chloro-2-trifluoromethyl-phenyl)-cyclopropanecarboxylic acid] |
| < 1 µM | ≥ 10 µM | CC(C)(CN([C@]1(C(=O)O)C[C@H]1c1ccccc1)S(=O)(=O)c1ccc(-c2ccc(Cl)cc2)cc1)C(=O)O (relative stereo) [Example 1-37, (1R*,2S*)-1-[(2-carboxy-2-methyl-propyl)-(4′-chloro-biphenyl-4-sulfonyl)-amino]-2-phenyl-cyclopropanecarboxylic acid] |
| < 1 µM | ≥ 10 µM | CS(=O)(=O)NC(=O)CN([C@]1(C(=O)O)C[C@H]1c1ccccc1)S(=O)(=O)c1ccc(-c2ccc(Cl)cc2)cc1 (relative stereo) [Example 1-38, (1R*,2S*)-1-[(4′-chloro-biphenyl-4-sulfonyl)-(2-methanesulfonylamino-2-oxo-ethyl)-amino]-2-phenyl-cyclopropanecarboxylic acid] |
| < 0.1 µM | ≥ 10 µM | O=C(O)CN([C@]1(C(=O)O)C[C@H]1c1cccc(OCc2ccccc2)c1)S(=O)(=O)c1ccc(-c2ccc(Cl)cc2)cc1 (relative stereo) [Example 1-39, (1R*,2S*)-2-(3-benzyloxy-phenyl)-1-[carboxymethyl-(4′-chloro-biphenyl-4-sulfonyl)-amino]-cyclopropanecarboxylic acid] |
| < 0.1 µM | ≥ 10 µM | O=C(O)CN([C@]1(C(=O)O)C[C@H]1c1ccccc1OCc1ccccc1)S(=O)(=O)c1ccc(-c2ccc(Cl)cc2)cc1 (relative stereo) [Example 1-40, (1R*,2S*)-2-(2-benzyloxy-phenyl)-1-[carboxymethyl-(4′-chloro-biphenyl-4-sulfonyl)-amino]-cyclopropanecarboxylic acid] |
| < 0.1 µM | ≥ 10 µM | O=C(O)CN([C@]1(C(=O)O)C[C@H]1c1cccc(Cl)c1Cl)S(=O)(=O)c1ccc(-c2ccc(Cl)cc2)cc1 (relative stereo) [Example 1-41, (1R*,2S*)-1-[carboxymethyl-(4′-chloro-biphenyl-4-sulfonyl)-amino]-2-(2,3-dichloro-phenyl)-cyclopropanecarboxylic acid] |
| < 0.1 µM | ≥ 10 µM | O=C(O)CN([C@]1(C(=O)O)C[C@H]1c1ccccc1Oc1ccccc1)S(=O)(=O)c1ccc(-c2ccc(Cl)cc2)cc1 (relative stereo) [Example 1-42, (1R*,2S*)-1-[carboxymethyl-(4′-chloro-biphenyl-4-sulfonyl)-amino]-2-(2-phenoxy-phenyl)-cyclopropanecarboxylic acid] |
| < 1 µM | ≥ 10 µM | O=C(CN([C@]1(C(=O)O)C[C@H]1c1ccccc1)S(=O)(=O)c1ccc(-c2ccc(Cl)cc2)cc1)N1CC(O)C(O)C1 (relative stereo) [Example 1-43, (1R*,2S*)-1-{(4′-chloro-biphenyl-4-sulfonyl)-[2-(3,4-dihydroxy-pyrrolidin-1-yl)-2-oxo-ethyl]-amino}-2-phenyl-cyclopropanecarboxylic acid] |
| < 0.1 µM | ≥ 10 µM | O=C(O)CN([C@]1(C(=O)O)C[C@H]1c1cccc(Cc2ccccc2)c1)S(=O)(=O)c1ccc(-c2ccc(Cl)cc2)cc1 (relative stereo) [Example 1-44, (1R*, 2S*)-2-(3-benzyl-phenyl)-1-[carboxymethyl-(4′-chloro-biphenyl-4-sulfonyl)-amino]-cyclopropanecarboxylic acid] |
| < 1 µM | ≥ 10 µM | O=C(CN([C@]1(C(=O)O)C[C@H]1c1ccccc1)S(=O)(=O)c1ccc(-c2ccc(Cl)cc2)cc1)N1CCCC1 (relative stereo) [Example 1-45, (1R*,2S*)-1-[(4′-chloro-biphenyl-4-sulfonyl)-(2-oxo-2-pyrrolidin-1-yl-ethyl)-amino]-2-phenyl-cyclopropanecarboxylic acid] |
| < 1 µM | ≥ 10 µM | COC(=O)CN([C@]1(C(=O)O)C[C@H]1c1ccccc1)S(=O)(=O)c1ccc(-c2ccc(Cl)cc2)cc1 (relative stereo) [Example 1-46, (1R*,2S*)-1-[(4′-chloro-biphenyl-4-sulfonyl)-methoxycarbonylmethyl-amino]-2-phenyl-cyclopropanecarboxylic acid] |

From US20050222146A1, “N-substituted-n-sulfonylaminocyclopropane compounds and pharmaceutical use thereof” (priority 2003, published 2005)
